Results published in ChEMBL document CHEMBL4811217, “Peptide-based topical agents and intravenous hemostat for rapid hemostasis” (2020).
Residues, ends and D or L forms follow the SMILES beside them.

Assays:
[1] = system: Blood; test: Induction of blood clotting in chicken serum free blood corpuscles assessed as blood clotting time at 1.5 mM by hayem-method; type: functional, Gallus gallus
[2] = system: Plasma; test: Induction of clotting in chicken plasma assessed as thrombin clotting time at 1.5 mM; type: functional, Gallus gallus
[3] = Induction of platelet aggregation in iv dosed Sprague-Dawley rat model of liver injury assessed as reduction in blood loss measured after 30 mins; type: functional; design: scale not given: the % may be the effect or the level left; conditions: 0.5 h

SMILES	Time [1] [s]	Time [2] [s]	Activity [3] [%]
CC(C)C[C@H](NC(=O)[C@H](Cc1cnc[nH]1)NC(=O)[C@H](Cc1cnc[nH]1)NC(=O)[C@H](CCC(N)=O)NC(=O)[C@@H](N)CCC(N)=O)C(=O)NCC(=O)NCC(=O)N[C@@H](C)C(=O)N[C@@H](CCCCN)C(=O)N[C@@H](CCC(N)=O)C(=O)N[C@@H](C)C(=O)NCC(=O)N[C@@H](CC(=O)O)C(=O)N[C@H](C(=O)O)C(C)C (H-QQHHLGGAKQAGDV-OH)	51	35	–
CC(C)C[C@H](NC(=O)[C@@H](NC(=O)[C@@H](N)CCCNC(=N)N)[C@@H](C)O)C(=O)N[C@@H](C)C(=O)N[C@@H](Cc1ccccc1)C(=O)N[C@H](C(=O)N[C@@H](CCCNC(=N)N)C(=O)N1CCC[C@H]1C(=O)N[C@@H](CCCCN)C(=O)O)C(C)C (H-RTLAFVRPK-OH)	–	–	60
